Measured values published in patent US12201610B2, “Compositions comprising aticaprant” (Janssen Pharmaceuticals, Inc., priority 2022, dated 2025).

Tested on: subjects with MDD
Assay: SHAPS total score / anhedonia level (Example 6)
Assay type: in vivo, human
Details: for SHAPS Total Score Change from Baseline LSMean (SE) / SHAPS Total Score LSMean Difference (SE) Treatment Placebo: MMRM; for SHAPS Total Score Effect Size: negative favors aticaprant
Text: To assess a potential effect on anhedonia, an anhedonia scale may be used. For example, the Snaith-Hamilton Pleasure Scale (SHAPS) analysis is a validated scale for the measurement of anhedonia. The SHAPS is a subject completed scale in which subjects score whether or not they experience pleasure in performing a list of activities or experiences. The SHAPS is a self-reported 14-item instrument, developed for the assessment of hedonic capacity. Subjects score whether they experience pleasure in performing a list of activities or experiences. Subjects can rate the answers as 1-4 where 1 indicates “Definitely agree”, 2 indicates “Agree”, 3 indicates “Disagree” and 4 indicates “Definitely disagree”. The subject's item responses are summed to provide a total score ranging from 14 to 56. A higher total SHAPS score indicates higher levels of current anhedonia. Physician/clinical judgment can be used to assess anhedonia separately or in conjunction with an anhedonia scale.
In some embodiments, the patient has moderate anhedonia. In other embodiments, the patient has severe anhedonia. An assessment of moderate or severe anhedonia is typically determined physician/clinical judgment and/or by one or more tests that provide insight into whether a patient has anhedonia. For example, the severity of the anhedonia may be determined using the SHAPS method. In some embodiments, a patient with moderate or severe anhedonia is considered to have a high level of anhedonia. For example, a patient with a SHAPS score of 38 or greater is considered to have moderate to severe anhedonia that can be considered a high level of anhedonia. In some embodiments, a high level of anhedonia is reflected by a SHAPS score of at least about 40, about 42, about 44, about 46, about 48, about 50, about 52, about 54, about 56, […]. A patient with mild or no anhedonia would be considered to have a low level of anhedonia that is assessed by physician/clinical judgment and/or one or more tests. For example, a patient with a SHAPS score of less than 38 is considered to have low anhedonia. In certain embodiments, a patient with mild anhedonia may have a SHAPS score of 20 to less than 38, for example, a SHAPS score of 20 to about 36, about 22 to about 36, about 24 to about 36, about 26 to about 36, about 26 to about 34, about 26 to about 32, about 26 to about 30, about 26 to about 28, about 28 to about 36, about 28 to about 36, about 30, to about 36, about 32 to about 36, about 34 to about 36, about 20 to about 34, about 22 to about 34, about 24 to about 34, about 26 to about 32, about 26 to about 30, about 26 to about 28, about 28 to about 36, about 28 to about 34, about 28 to about 32, about 28 to about 30, about 30 to about 36, about 30 to about 34, about 30 to about 32, about 32 to about 36, about 32 to about 34, or about 34 to about 36. Typically, a SHAPS score of less than 20 can be considered to correspond to normal hedonic functioning, and for purposes of this disclosure, would fall into the low category of anhedonia, e.g., a SHAPS score of less than 38.
iii. To investigate the effect of aticaprant versus placebo on depression related anhedonia as assessed by the SHAPS.
• (i) Depression: Montgomery-Åsberg Depression Rating Scale (MADRS), Clinical Global Impression-Severity (CGI-S), Symptoms of Major Depressive Disorder Scale (SMDDS), and Self-assessment of treatment experience (SATE) • (ii) Anhedonia: Snaith-Hamilton Pleasure Scale (SHAPS) • (iii) Anxiety: Structured Interview Guide for the Hamilton Anxiety scale (SIGH-A) and HAM-A6 • (iv) Effects on Cognition: The Cognitive and Physical Functioning Questionnaire (CPFQ) • (v) Safety assessments
Changes in SHAPS total score were analyzed with the same MMRM model used for MADRS total score. The estimated LS Mean difference with 80% 2-sided CI at treatment week 6 between aticaprant and placebo was −0.7 [−1.81, 0.41]. See, FIG. 7 and Tables 28 and 29 and FIG. 18. The corresponding p-value was 0.419.

[1] = eITT Analysis Set, Treatment Baseline
[2] = eITT Analysis Set, Treatment Week 1
[3] = eITT Analysis Set, Treatment Week 3
[4] = eITT Analysis Set, Treatment Week 4
[5] = eITT Analysis Set, Treatment Week 5
[6] = eITT Analysis Set, Treatment Week 6
[7] = eITT, Treatment Week 1, 10 mg adjunctive to SSRI/SNRI
[8] = eITT, Treatment Week 3, 10 mg adjunctive to SSRI/SNRI
[9] = eITT, Treatment Week 4, 10 mg adjunctive to SSRI/SNRI
[10] = eITT, Treatment Week 5, 10 mg adjunctive to SSRI/SNRI
[11] = eITT, Treatment Week 6, 10 mg adjunctive to SSRI/SNRI
[12] = fITT Analysis Set, Baseline/Day 22, Table 42
[13] = fITT Analysis Set, Treatment Baseline
[14] = fITT Analysis Set, Treatment Week 1
[15] = fITT Analysis Set, Treatment Week 3
[16] = fITT Analysis Set, Treatment Week 4
[17] = fITT Analysis Set, Treatment Week 5
[18] = fITT Analysis Set, Treatment Week 6

Cc1cc(C)cc(C2CCCN2Cc2ccc(Oc3ccc(C(N)=O)cc3F)cc2)c1 (centres unmarked) [aticaprant, 3-fluoro-4-4-2-(3,5-dimethylphenyl)pyrrolidin-1-yl-methylphenoxybenzamide]
SHAPS total score estimated LS mean difference between aticaprant and placebo, MMRM (Treatment Week 6, population not given, follows Table 29 (fITT)): −0.8
Frequency of subjects: High Level of Anhedonia (SHAPS Total Score >= 38), % [1]: (43.33%)
Frequency of subjects: Low Level of Anhedonia (20 <= SHAPS Total Score < 38), % [1]: 56.67%
SHAPS Total Score Change from Baseline Mean (SD) [2]: −1.9
SHAPS Total Score Mean (SD) [2]: 34.5
SHAPS Total Score Change from Baseline LSMean (SE) [2]: −1.7
SHAPS Total Score LSMean Difference (SE) Treatment Placebo [2]: −0.8 (0.86)
SHAPS Total Score Change from Baseline Mean (SD) [3]: −3.4
SHAPS Total Score Mean (SD) [3]: 33.0
SHAPS Total Score Change from Baseline LSMean (SE) [3]: −3.2
SHAPS Total Score LSMean Difference (SE) Treatment Placebo [3]: −1.4 (0.86)
SHAPS Total Score Change from Baseline Mean (SD) [4]: −4.5
SHAPS Total Score Mean (SD) [4]: 32.0
SHAPS Total Score Change from Baseline LSMean (SE) [4]: −4.3
SHAPS Total Score LSMean Difference (SE) Treatment Placebo [4]: −1.4 (0.86)
SHAPS Total Score Change from Baseline Mean (SD) [5]: −4.3
SHAPS Total Score Mean (SD) [5]: 32.4
SHAPS Total Score Change from Baseline LSMean (SE) [5]: −4.0
SHAPS Total Score LSMean Difference (SE) Treatment Placebo [5]: −0.5 (0.87)
Frequency of subjects: High Level of Anhedonia (SHAPS Total Score >= 38), % [6]: (13.56%)
Frequency of subjects: Low Level of Anhedonia (20 <= SHAPS Total Score < 38), % [6]: 81.36%
Frequency of subjects: No Anhedonia (SHAPS Total Score < 20), % [6]: 5.08%
SHAPS Total Score Change from Baseline Mean (SD) [6]: −4.6
SHAPS Total Score Mean (SD) [6]: 31.9
SHAPS Total Score Change from Baseline LSMean (SE) [6]: −4.4
SHAPS Total Score LSMean Difference (SE) Treatment Placebo [6]: −0.7 (0.87)
SHAPS Total Score Mean Change from Baseline (SD) [7]: −1.9 (4.30)
SHAPS Total Score Mean Change to Placebo (SD pooled) [7]: −0.6 (3.77)
SHAPS Total Score Effect Size (eITT, Treatment Week 1, vs placebo): −0.15
SHAPS Total Score Mean Change from Baseline (SD) [8]: −3.4 (5.25)
SHAPS Total Score Mean Change to Placebo (SD pooled) [8]: −1.2 (4.96)
SHAPS Total Score Effect Size (eITT, Treatment Week 3, vs placebo): −0.25
SHAPS Total Score Mean Change from Baseline (SD) [9]: −4.5 (5.89)
SHAPS Total Score Mean Change to Placebo (SD pooled) [9]: −1.2 (5.21)
SHAPS Total Score Effect Size (eITT, Treatment Week 4, vs placebo): −0.23
SHAPS Total Score Mean Change from Baseline (SD) [10]: −4.3 (6.07)
SHAPS Total Score Mean Change to Placebo (SD pooled) [10]: −0.4 (5.49)
SHAPS Total Score Effect Size (eITT, Treatment Week 5, vs placebo): −0.08
SHAPS total score estimated LS mean difference between aticaprant and placebo, MMRM (eITT, Treatment Week 6): −0.7
SHAPS Total Score Mean Change from Baseline (SD) [11]: −4.6 (6.23)
SHAPS Total Score Mean Change to Placebo (SD pooled) [11]: −0.4 (5.66)
Frequency of subjects: Anhedonia (SHAPS Total Score >=20), % [12]: 98.8%
Frequency of subjects: No Anhedonia (SHAPS Total Score < 20), % [12]: 1.2%
Frequency of subjects: High Level of Anhedonia (SHAPS Total Score >= 38), % [13]: 36.14%
Frequency of subjects: Low Level of Anhedonia (20 >= SHAPS Total Score <38), % [13]: 62.65%
Frequency of subjects: No Anhedonia (SHAPS Total Score < 20), % (fITT Analysis Set, Treatment Baseline, Table 44): 1.2%
SHAPS Total Score Mean (SD) [14]: 32.9
SHAPS Total Score Mean Change to Placebo (SD pooled) [14]: −0.6 (3.82)
SHAPS Total Score Change from Baseline Mean (SD) (fITT Analysis Set, Treatment Week 1 (Table 29)): −2.0
SHAPS Total Score Mean Change from Baseline (SD) (fITT Analysis Set, Treatment Week 1 (Table 30)): −2.0 (4.05)
SHAPS Total Score Change from Baseline LSMean (SE) [14]: −1.9
SHAPS Total Score LSMean Difference (SE) Treatment Placebo [14]: −1.0 (0.72)
SHAPS Total Score Effect Size [14]: −0.15
SHAPS Total Score Mean (SD) [15]: 31.9
SHAPS Total Score Mean Change to Placebo (SD pooled) [15]: −1.0 (5.09)
SHAPS Total Score Change from Baseline Mean (SD) (fITT Analysis Set, Treatment Week 3 (Table 29)): −3.2
SHAPS Total Score Mean Change from Baseline (SD) (fITT Analysis Set, Treatment Week 3 (Table 30)): −3.2 (5.07)
SHAPS Total Score Change from Baseline LSMean (SE) [15]: −3.1
SHAPS Total Score LSMean Difference (SE) Treatment Placebo [15]: −1.4 (0.73)
SHAPS Total Score Effect Size [15]: −0.20
SHAPS Total Score Mean (SD) [16]: 30.8
SHAPS Total Score Mean Change to Placebo (SD pooled) [16]: −1.2 (5.08)
SHAPS Total Score Change from Baseline Mean (SD) (fITT Analysis Set, Treatment Week 4 (Table 29)): −4.2
SHAPS Total Score Mean Change from Baseline (SD) (fITT Analysis Set, Treatment Week 4 (Table 30)): −4.2 (5.70)
SHAPS Total Score Change from Baseline LSMean (SE) [16]: −4.1
SHAPS Total Score LSMean Difference (SE) Treatment Placebo [16]: −1.6 (0.73)
SHAPS Total Score Effect Size [16]: −0.23
SHAPS Total Score Mean (SD) [17]: 30.9
SHAPS Total Score Mean Change to Placebo (SD pooled) [17]: −0.5 (5.24)
SHAPS Total Score Change from Baseline Mean (SD) (fITT Analysis Set, Treatment Week 5 (Table 29)): −4.3
SHAPS Total Score Mean Change from Baseline (SD) (fITT Analysis Set, Treatment Week 5 (Table 30)): −4.3 (5.70)
SHAPS Total Score Change from Baseline LSMean (SE) [17]: −4.1
SHAPS Total Score LSMean Difference (SE) Treatment Placebo [17]: −0.8 (0.73)
SHAPS Total Score Effect Size [17]: −0.09
Frequency of subjects: High Level of Anhedonia (SHAPS Total Score >= 38), % [18]: 10.39%
Frequency of subjects: Low Level of Anhedonia (20 >= SHAPS Total Score <38), % [18]: 80.52%
Frequency of subjects: No Anhedonia (SHAPS Total Score < 20), % [18]: 9.09%
SHAPS Total Score Mean (SD) [18]: 30.5
SHAPS Total Score Mean Change to Placebo (SD pooled) [18]: −0.5 (5.45)
SHAPS Total Score Change from Baseline Mean (SD) (fITT Analysis Set, Treatment Week 6 (Table 29)): −4.7
SHAPS Total Score Mean Change from Baseline (SD) (fITT Analysis Set, Treatment Week 6 (Table 30)): −4.7 (5.91)
SHAPS Total Score Change from Baseline LSMean (SE) [18]: −4.5
SHAPS Total Score LSMean Difference (SE) Treatment Placebo [18]: −0.8 (0.73)
SHAPS Total Score Effect Size [18]: −0.08
SHAPS total score mean change from treatment baseline (SD) (fITT, Treatment Week 6): −4.7 (5.91)
SHAPS total score observed effect size (fITT, Treatment Week 6): 0.08
